Test results reported in patent US8765695B2, “Use of ginsenoside RG1, its metabolites ginsenoside RH1 and/or PPT” (priority 2007, dated 2014).
Marks after values point to notes of the source that are not given here.

What was measured:
[1] = tested on: sperms in tail of epididymis; experiment: Gossypol aspermatogenesis model: quality of sperms from tail of epididymis by CASA; type: in vivo,  male mice; conditions: 14th day
[2] = tested on: male mice; experiment: Test of sexual ethology: bestriding time and mating frequency of male mice with estral female mice; type: in vivo, Kunming mice
Experimental: Kunming male mice (age 10 weeks, weight body 32-36 g), Kunming female mice (age 10 weeks, weight body 30-34 g), as purchased from Laboratory Animal Center of Chinese Academy of Medical Sciences (with the number of certificate SCXK (Jing) 2005-0004), were placed in a clean grade animal house alternately in light and in darkness (12 h:12 h), while taking water and food freely. The test started after the mice had adapted to the environment in the animal house for 5 days. During the period of adapting to the environment, male mice and female mice were isolated from each other.
In order to correctly reflect the change of male mice in sexual function, we prepared estral female mice by ectomizing their ovaries and inducing them by application of external hormone. After anesthetized with chloral hydrate, female mice were subjected to the steps of ectomizing bilateral ovaries by dorsal approach, ligating uterine tube residue end, and suturing skin, followed by recuperating for one week. The induction by application of hormone was conducted by reference to the literature (Masayoshi Nomura, et al, Physiology & Behavior 91 (2007) 223-228), comprising the steps of subcutaneously injecting estradiol benzoate (30 μg per mouse, is) at 48 h prior to use, and subcutaneously injecting progesterone (500 μg per mouse, is) at 4 h prior to use, to thereby obtain estral female mice.
Estral female mice were put in a ratio of 2:1 to male mice inside a mating box in which male mice were placed. They were trained for consecutive 5 days, 12 min each day. When the mating reaction of male mice became stable, the mice were grouped with the consideration that the bestriding time in each group of mice was substantially the same, while discarding the mice that had relatively weak reaction and no reaction.
In darkness, ethological test was carried out in the rearing cage of male mice. Estral female mice and male mice were kept in a ratio of 2:1 inside the same box for 12 min, during which period the bestriding time and mating frequency of the male mice were observed.
All of the values were expressed by using mean value and standard error (M±SEM), the analytic method used was one-way analysis of variance (ANOVA), and the statistic results were expressed by double star method, i.e., *<0.05, **<0.01.

[3] = biological target: PDE5 (Homo sapiens, UniProt O76074); experiment: Inhibition effect on PDE5 (cGMP degradation, radioimmune autograph technique); type: biochemical; conditions: read-out: Inhibition rate on PDE5
[4] = 5 mg/kg every day + gossypol 50 mg/kg every other day
[5] = 10 mg/kg every day + gossypol 50 mg/kg every other day
[6] = 5 mg/kg, 1st day, 12 min observation
[7] = 10 mg/kg, 1st day, 12 min observation

CC(C)=CCC[C@](C)(O)[C@H]1CC[C@]2(C)[C@@H]1[C@H](O)C[C@@H]1[C@@]3(C)CC[C@H](O)C(C)(C)[C@@H]3[C@@H](O)C[C@]12C [Ppt]
Number of sperms [1, 4]: 141 ± 18** 10^6 · ml−1 | Motility of sperms (A + B) ([1]; 5 mg/kg every day + gossypol): 38 ± 11 % | Viability rate of sperms ([1]; 5 mg/kg every day + gossypol): 55 ± 9 % | Number of sperms [1, 5]: 178 ± 54** 10^6 · ml−1 | Motility of sperms (A + B) ([1]; 10 mg/kg every day + gossypol): 39 ± 9 % | Viability rate of sperms ([1]; 10 mg/kg every day + gossypol): 56 ± 7 % | bestriding time of mice ([2]; 5 mg/kg, 1st day): 3.3 ± 2.3 min | mating frequency of mice [2, 6]: 11.4 ± 6.8 | bestriding time of mice ([2]; 5 mg/kg, 4th day): 3.9 ± 4.2 min | mating frequency of mice ([2]; 5 mg/kg, 4th day): 15.4 ± 8.2 | bestriding time of mice ([2]; 5 mg/kg, 8th day): 4.5 ± 3.8 min | mating frequency of mice ([2]; 5 mg/kg, 8th day): 27.4 ± 8.7 | bestriding time of mice ([2]; 5 mg/kg, 12th day): 6.8 ± 3.3 min | mating frequency of mice ([2]; 5 mg/kg, 12th day): 28.2 ± 9.3 | bestriding time of mice ([2]; 5 mg/kg, 14th day): 7.9 ± 4.4 min | mating frequency of mice ([2]; 5 mg/kg, 14th day): 29.5 ± 7.7 | bestriding time of mice ([2]; 5 mg/kg, 16th day): 8.3 ± 3.1* min | mating frequency of mice ([2]; 5 mg/kg, 16th day): 33.5 ± 10.4 | bestriding time of mice ([2]; 5 mg/kg, 18th day): 9.2 ± 3.8* min | mating frequency of mice ([2]; 5 mg/kg, 18th day): 39.2 ± 8.6* | bestriding time of mice ([2]; 5 mg/kg, 20th day): 9.1 ± 3.5* min | mating frequency of mice ([2]; 5 mg/kg, 20th day): 41.7 ± 7.4* | bestriding time of mice ([2]; 10 mg/kg, 1st day): 2.9 ± 3.4 min | mating frequency of mice [2, 7]: 13.4 ± 6.3 | bestriding time of mice ([2]; 10 mg/kg, 4th day): 3.3 ± 4.1 min | mating frequency of mice ([2]; 10 mg/kg, 4th day): 15.4 ± 8.4 | bestriding time of mice ([2]; 10 mg/kg, 8th day): 5.1 ± 3.8 min | mating frequency of mice ([2]; 10 mg/kg, 8th day): 22.8 ± 9.6 | bestriding time of mice ([2]; 10 mg/kg, 12th day): 7.2 ± 3.3 min | mating frequency of mice ([2]; 10 mg/kg, 12th day): 31.6 ± 8.4 | bestriding time of mice ([2]; 10 mg/kg, 14th day): 8.4 ± 4.2 min | mating frequency of mice ([2]; 10 mg/kg, 14th day): 33.7 ± 8.5 | bestriding time of mice ([2]; 10 mg/kg, 16th day): 9.4 ± 3.9* min | mating frequency of mice ([2]; 10 mg/kg, 16th day): 35.3 ± 9.3 | bestriding time of mice ([2]; 10 mg/kg, 18th day): 9.4 ± 3.9* min | mating frequency of mice ([2]; 10 mg/kg, 18th day): 37.2 ± 8.3* | bestriding time of mice ([2]; 10 mg/kg, 20th day): 9.4 ± 3.1* min | mating frequency of mice ([2]; 10 mg/kg, 20th day): 40.2 ± 7.3*

CC(C)=CCC[C@](C)(O)[C@H]1CC[C@]2(C)[C@@H]1[C@H](O)C[C@@H]1[C@@]3(C)CC[C@H](O)C(C)(C)[C@@H]3[C@@H](O[C@@H]3O[C@H](CO)[C@@H](O)[C@H](O)[C@H]3O)C[C@]12C [Rh1, ginsenoside Rh1]
Number of sperms [1, 4]: 142 ± 24** 10^6 · ml−1 | Motility of sperms (A + B) ([1]; 5 mg/kg every day + gossypol): 39 ± 8 % | Viability rate of sperms ([1]; 5 mg/kg every day + gossypol): 56 ± 10 % | Number of sperms [1, 5]: 143 ± 16** 10^6 · ml−1 | Motility of sperms (A + B) ([1]; 10 mg/kg every day + gossypol): 39 ± 6 % | Viability rate of sperms ([1]; 10 mg/kg every day + gossypol): 52 ± 5 % | bestriding time of mice ([2]; 5 mg/kg, 1st day): 2.8 ± 3.2 min | mating frequency of mice [2, 6]: 11.3 ± 4.9 | bestriding time of mice ([2]; 5 mg/kg, 4th day): 3.5 ± 4.1 min | mating frequency of mice ([2]; 5 mg/kg, 4th day): 13.9 ± 3.3 | bestriding time of mice ([2]; 5 mg/kg, 8th day): 4.1 ± 3.5 min | mating frequency of mice ([2]; 5 mg/kg, 8th day): 23.5 ± 5.7 | bestriding time of mice ([2]; 5 mg/kg, 12th day): 6.2 ± 2.9 min | mating frequency of mice ([2]; 5 mg/kg, 12th day): 29.4 ± 4.8 | bestriding time of mice ([2]; 5 mg/kg, 14th day): 8.6 ± 5.2 min | mating frequency of mice ([2]; 5 mg/kg, 14th day): 33.6 ± 6.1 | bestriding time of mice ([2]; 5 mg/kg, 16th day): 8.7 ± 4.2* min | mating frequency of mice ([2]; 5 mg/kg, 16th day): 32.2 ± 5.3 | bestriding time of mice ([2]; 5 mg/kg, 18th day): 8.9 ± 3.3* min | mating frequency of mice ([2]; 5 mg/kg, 18th day): 39.8 ± 9.3* | bestriding time of mice ([2]; 5 mg/kg, 20th day): 9.2 ± 3.4* min | mating frequency of mice ([2]; 5 mg/kg, 20th day): 38.1 ± 8.5* | bestriding time of mice ([2]; 10 mg/kg, 1st day): 3.6 ± 2.7 min | mating frequency of mice [2, 7]: 9.7 ± 5.6 | bestriding time of mice ([2]; 10 mg/kg, 4th day): 3.9 ± 3.8 min | mating frequency of mice ([2]; 10 mg/kg, 4th day): 14.3 ± 9.5 | bestriding time of mice ([2]; 10 mg/kg, 8th day): 4.0 ± 3.5 min | mating frequency of mice ([2]; 10 mg/kg, 8th day): 25.7 ± 8.6 | bestriding time of mice ([2]; 10 mg/kg, 12th day): 6.3 ± 2.6 min | mating frequency of mice ([2]; 10 mg/kg, 12th day): 28.4 ± 10.5 | bestriding time of mice ([2]; 10 mg/kg, 14th day): 8.4 ± 3.1 min | mating frequency of mice ([2]; 10 mg/kg, 14th day): 32.2 ± 9.3 | bestriding time of mice ([2]; 10 mg/kg, 16th day): 8.9 ± 3.7* min | mating frequency of mice ([2]; 10 mg/kg, 16th day): 34.1 ± 8.2 | bestriding time of mice ([2]; 10 mg/kg, 18th day): 9.1 ± 3.8* min | mating frequency of mice ([2]; 10 mg/kg, 18th day): 36.4 ± 6.7* | bestriding time of mice ([2]; 10 mg/kg, 20th day): 9.3 ± 3.8* min | mating frequency of mice ([2]; 10 mg/kg, 20th day): 43.4 ± 7.3*

CCCc1nn(C)c2c(=O)[nH]c(-c3cc(S(=O)(=O)N4CCN(C)CC4)ccc3OCC)nc12 [Sildenafil, reference compound]
inhibition at 0.0025 µM [3]: 71.6% | inhibition at 0.005 µM [3]: 14.6% | inhibition at 0.01 µM [3]: 52.6% | inhibition at 0.02 µM [3]: 83.3% | inhibition at 0.04 µM [3]: 100%
